In PubChem BioAssay AID2060508 (Molecular Pharmacology Branch, DTP, NCI, 2025):

Tested on: 454973-116-R2-J3-PDC spheroids, viability, % test/control
Assay: Anticancer human tumor 454973-116-R2-J3-PDC patient-derived pancreatic carcinoma cell line growth inhibition [GQUAD]
Settings: spheroids with HUVEC and MSC; for IC50: curve of first compound; for viability, T/C: stronger effect = lower value
How it was run: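 Viability of tumor cells grown as complex spheroids with endothelial and stromal cells, exposed to drug combinations. Top concentration at or near clinical Cmax (else 10 microM), diluted in half-log increments.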

[1] = second compound 0.0316 µM, first compound 0.0316 µM
[2] = second compound 0.0316 µM, first compound 0.1 µM
[3] = second compound 0.0316 µM, first compound 0.316 µM
[4] = second compound 0.0316 µM, first compound 1 µM
[5] = second compound 0.0316 µM, first compound 3.16 µM
[6] = second compound 0.0316 µM, first compound 10 µM
[7] = second compound 0.1 µM, first compound 0.0316 µM
[8] = second compound 0.1 µM, first compound 0.1 µM
[9] = second compound 0.1 µM, first compound 0.316 µM
[10] = second compound 0.1 µM, first compound 1 µM
[11] = second compound 0.1 µM, first compound 3.16 µM
[12] = second compound 0.1 µM, first compound 10 µM
[13] = second compound 0.316 µM, first compound 0.0316 µM
[14] = second compound 0.316 µM, first compound 0.1 µM
[15] = second compound 0.316 µM, first compound 0.316 µM
[16] = second compound 0.316 µM, first compound 1 µM
[17] = second compound 0.316 µM, first compound 3.16 µM
[18] = second compound 0.316 µM, first compound 10 µM
[19] = second compound 1 µM, first compound 0.0316 µM
[20] = second compound 1 µM, first compound 0.1 µM
[21] = second compound 1 µM, first compound 0.316 µM
[22] = second compound 1 µM, first compound 1 µM
[23] = second compound 1 µM, first compound 3.16 µM
[24] = second compound 1 µM, first compound 10 µM
[25] = second compound 3.16 µM, first compound 0.0316 µM
[26] = second compound 3.16 µM, first compound 0.1 µM
[27] = second compound 3.16 µM, first compound 0.316 µM
[28] = second compound 3.16 µM, first compound 1 µM
[29] = second compound 3.16 µM, first compound 3.16 µM
[30] = second compound 3.16 µM, first compound 10 µM
[31] = second compound 10 µM, first compound 0.0316 µM
[32] = second compound 10 µM, first compound 0.1 µM
[33] = second compound 10 µM, first compound 0.316 µM
[34] = second compound 10 µM, first compound 1 µM
[35] = second compound 10 µM, first compound 3.16 µM
[36] = second compound 10 µM, first compound 10 µM
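Also: spheroids exposed to compounds for seven days.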
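For viability, T/C in this document: 100% = DMSO vehicle control viability.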

Q: For CC1COCCN1c1cc(-c2ccnn2C)c2ccnc(-c3ccn[nH]3)c2n1 (centres undefined) + CN(C)c1ccc(Nc2c3ccc(NC(=O)CCN4CCCC4)cc3nc3cc(NC(=O)CCN4CCCC4)ccc23)cc1, which IC50 (second compound 0.0316 µM) is on record?
A: 182 nM

Q: And the IC50 (second compound 0.1 µM)?
A: 190 nM

Q: What about the IC50 (second compound 0.316 µM) of the same compound?
A: 190 nM

Q: And the IC50 (second compound 1 µM)?
A: 171 nM

Q: What about the IC50 (second compound 3.16 µM) of the same compound?
A: 141 nM

Q: And the IC50 (second compound 10 µM)?
A: 79 nM

Q: What about the viability, T/C [1] of the same compound?
A: 97.9%

Q: And the viability, T/C [2]?
A: 66.8%

Q: What about the viability, T/C [3] of the same compound?
A: 35.2%

Q: What about the viability, T/C [4] of the same compound?
A: 23%

Q: What about the viability, T/C [5] of the same compound?
A: 24%

Q: What about the viability, T/C [6] of the same compound?
A: 29.4%

Q: What about the viability, T/C [7] of the same compound?
A: 102%

Q: And the viability, T/C [8]?
A: 72%

Q: What about the viability, T/C [9] of the same compound?
A: 32.9%

Q: What about the viability, T/C [10] of the same compound?
A: 22.9%

Q: What about the viability, T/C [11] of the same compound?
A: 23.1%

Q: And the viability, T/C [12]?
A: 26.1%

Q: What about the viability, T/C [13] of the same compound?
A: 94.3%

Q: What about the viability, T/C [14] of the same compound?
A: 74.1%

Q: And the viability, T/C [15]?
A: 31%

Q: What about the viability, T/C [16] of the same compound?
A: 21.3%

Q: What about the viability, T/C [17] of the same compound?
A: 21.7%

Q: What about the viability, T/C [18] of the same compound?
A: 29.4%

Q: And the viability, T/C [19]?
A: 91.3%

Q: What about the viability, T/C [20] of the same compound?
A: 63.1%

Q: What about the viability, T/C [21] of the same compound?
A: 36.2%

Q: And the viability, T/C [22]?
A: 20.8%

Q: And the viability, T/C [23]?
A: 22.6%

Q: What about the viability, T/C [24] of the same compound?
A: 27.5%

Q: And the viability, T/C [25]?
A: 87%

Q: What about the viability, T/C [26] of the same compound?
A: 55.5%

Q: What about the viability, T/C [27] of the same compound?
A: 38%

Q: And the viability, T/C [28]?
A: 21.3%

Q: And the viability, T/C [29]?
A: 26.2%

Q: And the viability, T/C [30]?
A: 27.1%

Q: And the viability, T/C [31]?
A: 69.8%

Q: What about the viability, T/C [32] of the same compound?
A: 45.5%

Q: What about the viability, T/C [33] of the same compound?
A: 31.4%

Q: What about the viability, T/C [34] of the same compound?
A: 27.6%

Q: What about the viability, T/C [35] of the same compound?
A: 24.1%

Q: And the viability, T/C [36]?
A: 27%

Q: With Nc1ccn(C2OC(CO)C(O)C2(F)F)c(=O)n1 (centres undefined) + Cc1cnc(CNC(=O)c2c(=O)c3ccc(N4CCCN(C)CC4)nc3n3c2sc2ccccc23)cn1 as the compound, how does the IC50 (second compound 0.0316 µM) read?
A: < 31.6 nM

Q: What about the IC50 (second compound 0.1 µM) of the same compound?
A: < 31.6 nM

Q: And the IC50 (second compound 0.316 µM)?
A: < 31.6 nM

Q: What about the IC50 (second compound 1 µM) of the same compound?
A: < 31.6 nM

Q: And the IC50 (second compound 3.16 µM)?
A: < 31.6 nM

Q: And the IC50 (second compound 10 µM)?
A: < 31.6 nM

Q: And the viability, T/C [1]?
A: 18.9%

Q: What about the viability, T/C [2] of the same compound?
A: 15.8%

Q: What about the viability, T/C [3] of the same compound?
A: 17.5%

Q: What about the viability, T/C [4] of the same compound?
A: 16.6%

Q: And the viability, T/C [5]?
A: 14.2%

Q: What about the viability, T/C [6] of the same compound?
A: 14.4%

Q: What about the viability, T/C [7] of the same compound?
A: 22.7%

Q: And the viability, T/C [8]?
A: 16.1%

Q: And the viability, T/C [9]?
A: 15.6%

Q: What about the viability, T/C [10] of the same compound?
A: 21.5%

Q: What about the viability, T/C [11] of the same compound?
A: 17.8%

Q: What about the viability, T/C [12] of the same compound?
A: 13.8%

Q: And the viability, T/C [13]?
A: 30.5%

Q: And the viability, T/C [14]?
A: 19.5%

Q: And the viability, T/C [15]?
A: 18.4%

Q: And the viability, T/C [16]?
A: 16.1%

Q: What about the viability, T/C [17] of the same compound?
A: 20.2%

Q: What about the viability, T/C [18] of the same compound?
A: 23.2%

Q: What about the viability, T/C [19] of the same compound?
A: 43.7%

Q: And the viability, T/C [20]?
A: 24.6%

Q: What about the viability, T/C [21] of the same compound?
A: 24%

Q: And the viability, T/C [22]?
A: 24.2%

Q: And the viability, T/C [23]?
A: 22.9%

Q: And the viability, T/C [24]?
A: 21.8%

Q: And the viability, T/C [25]?
A: 45.5%

Q: And the viability, T/C [26]?
A: 29.6%

Q: What about the viability, T/C [27] of the same compound?
A: 30.5%

Q: And the viability, T/C [28]?
A: 24.8%

Q: What about the viability, T/C [29] of the same compound?
A: 32.8%

Q: What about the viability, T/C [30] of the same compound?
A: 28.5%

Q: What about the viability, T/C [31] of the same compound?
A: 0.17%

Q: What about the viability, T/C [32] of the same compound?
A: 9.59%

Q: What about the viability, T/C [33] of the same compound?
A: 26.2%

Q: What about the viability, T/C [34] of the same compound?
A: 7.48%

Q: And the viability, T/C [35]?
A: 0.89%

Q: What about the viability, T/C [36] of the same compound?
A: 0.22%
